Results reported in patent US7968542B2, “Thiophene compounds and thrombopoietin receptor activators” (Nissan Chemical Industries, Ltd., priority 2005, dated 2011).

Tested on: Human bone marrow CD34+ cells
Experiment: Megakaryocyte colony stimulating activity (megakaryocyte colony forming method)
Type: cell-based
Conditions: 11 days
Method: The action of the compounds of Synthetic Examples 1 to 43 of the present invention and Reference Synthetic Examples 29 and 30 on the proliferation, differentiation and maturation of megakaryocyte cells was measured by the megakaryocyte colony forming method using human bone marrow cells. Human bone marrow CD34^+ cells (Cambrex Bio Science Walkersville) were incubated on 2-well chamber slide for 11 days in a CO2 incubator (5% CO2, 37° C.) using MegaCult™-C (StemCell Technologies) containing 0.1% (v/v) of the compounds of Synthetic Examples dissolved in dimethyl sulfoxide. After dehydration and fixation, the cells were stained with an anti-glycoprotein IIb/IIIa antibody in accordance with the instruction by the manufacturer. The colonies consisting of at least 8 stained megakaryocyte cells in each well were counted under a microscope. The megakaryocyte colony counts in at least 2 wells were averaged.

| SMILES | Megakaryocyte colony count (drug concentration 0.1 μg/mL) | Megakaryocyte colony count (drug concentration 0.3 μg/mL) | Megakaryocyte colony count (drug concentration 1 μg/mL) |
| --- | --- | --- | --- |
| C/C(=N\NC(=O)c1ccc(C(=O)O)s1)c1csc(-c2ccc(Cl)c(Cl)c2)c1O [Reference Synthetic Ex. 30, reference compound] | 12 | 34 | 87 |
| CC(=NNC(=O)c1ccc(C(=O)NCc2cnccn2)s1)c1csc(-c2ccc(Cl)c(Cl)c2)c1O [Synthetic Ex. 38, 5-{1-[5-(3,4-dichlorophenyl)-4-hydroxythiophen-3-yl]ethylidenehydrazinocarbonyl}thiophene-2-carboxylic acid (pyrazin-2-ylmethyl)amide] | 66 | – | – |
| CC(=NNC(=O)c1ccc(C(=O)N2CCOCC2)s1)c1csc(-c2ccc(Cl)c(Cl)c2)c1O.[K] [Synthetic Ex. 2, 5-(morpholine-4-carbonyl)thiophene-2-carboxylic acid {1-[5-(3,4-dichlorophenyl)-4-hydroxythiophen-3-yl]ethylidene}hydrazide potassium salt] | – | – | 239 |
| CC(=NNC(=O)c1ccc(C(=O)NCc2ccncc2)s1)c1csc(-c2ccc(Br)cc2)c1O [Synthetic Ex. 18, 5-{1-[5-(4-bromophenyl)-4-hydroxythiophen-3-yl]ethylidenehydrazinocarbonyl]thiophene-2-carboxylic acid 4-picolylamide] | – | – | 125 |
| COc1cc(CNC(=O)c2ccc(C(=O)NN=C(C)c3csc(-c4ccc(Cl)c(Cl)c4)c3O)s2)on1 [Synthetic Ex. 36, 5-{1-[5-(3,4-dichlorophenyl)-4-hydroxythiophen-3-yl]ethylidenehydrazinocarbonyl}thiophene-2-carboxylic acid (3-methoxyisoxazol-5-ylmethyl)amide] | 102 | – | 135 |
| C/C(=N\NC(=O)c1ccc(C(=O)NCc2ccncc2)s1)c1csc(-c2ccc(Cl)cc2)c1O [Synthetic Ex. 24, 5-{1-5-[(4-chlorophenyl)-4-hydroxythiophen-3-yl]ethylidenehydrazinocarbonyl}thiophene-2-carboxylic acid 4-picolylamide] | – | – | 164 |
| CC(=NNC(=O)c1ccc(C(=O)NCc2cc(C)n(C)n2)s1)c1csc(-c2ccc(Cl)c(Cl)c2)c1O [Synthetic Ex. 37, 5-{1-[5-(3,4-dichlorophenyl)-4-hydroxythiophen-3-yl]ethylidenehydrazinocarbonyl}thiophene-2-carboxylic acid (1,5-dimethyl-1H-pyrazol-3-ylmethyl)amide] | 81 | – | – |
| C/C(=N\NC(=O)c1ccc(C(=O)O)cc1)c1csc(-c2ccc(Cl)c(Cl)c2)c1O [Reference Synthetic Ex. 29, reference compound] | 2 | – | 31 |
| CNC(=O)c1ccc(C(=O)NN=C(C)c2csc(-c3ccc(Cl)cc3)c2O)s1 [Synthetic Ex. 27, 5-{1-[5-(4-chlorophenyl)-4-hydroxythiophen-3-yl]ethylidenehydrazinocarbonyl}thiophene-2-carboxylic acid methylamide] | – | – | 201 |
| CC(=NNC(=O)c1ccc(C(=O)NCc2ccncc2)s1)c1csc(-c2ccc(Cl)c(Cl)c2)c1O [Synthetic Ex. 30, 5-{1-[5-(3,4-dichlorophenyl)-4-hydroxythiophen-3-yl]ethylidenehydrazinocarbonyl}thiophene-2-carboxylic acid 4-picolylamide] | 145 | – | 271 |
| CC(=NNC(=O)c1ccc(C(=O)NCc2ccno2)s1)c1csc(-c2ccc(Cl)c(Cl)c2)c1O [Synthetic Ex. 35, 5-{1-[5-(3,4-dichlorophenyl)-4-hydroxythiophen-3-yl]ethylidenehydrazinocarbonyl}thiophene-2-carboxylic acid (isoxazol-5-ylmethyl)amide] | 135 | – | 153 |
